System: MR49F
Experiment: animal or person
Details: Mus musculus, po, 672 h, read-out: TGI
Description: Antitumor activity against human MR49F cells xenografted in NOD SCID NSG mouse assessed as tumor growth inhibition at 60 mg/kg/day, po measured twice weekly for 28 days relative to control

C[C@](O)(Cn1cc(-c2ccc(F)cc2)nn1)C(=O)Nc1ccc(C#N)c(C(F)(F)F)c1
inhibition in vivo at 60 mg/kg/day: 95%

Reference: ChEMBL document CHEMBL4808211, “Exploration and Biological Evaluation of Basic Heteromonocyclic Propanamide Derivatives as SARDs for the Treatment of Enzalutamide-Resistant Prostate Cancer” (J Med Chem, 2021)
